According to patent US11076596B2, “Substituted trifluoromethyloxadiazoles for combating phytopathogenic fungi” (BASF SE, priority 2017, dated 2021):

**Q.** For CO/N=C1\CCCC1NC(=O)c1ccc(-c2noc(C(F)(F)F)n2)cc1 (stereo not shown) [Ex-1, N-[(2E)-2-methoxyiminocyclopentyl]-4-[5-(trifluoromethyl)-1,2,4-oxadiazol-3-yl]benzamide], which melting point is on record?
**A.** 175 °C
